The text below walks through data of ChEMBL document CHEMBL3124761, “Synthesis and biological evaluation of N,N'-squaramides with high in vivo efficacy and low toxicity: toward a low-cost drug against Chagas disease” (J Med Chem, 2014).

Data set [1] concerns Mus musculus. Description: Toxicity in BALB/c albino mouse infected with blood trypomastigote stage of Trypanosoma cruzi assessed as decrease in ALT/GPT level in serum at 40 mg/kg, ip administered on day 7 to 12 post-infection measured after day 150 relative to control. The class given is organism-based. Particulars: in vivo. Details: dose 40 mg/kg, route intraperitoneal; scale not given: the % may be the effect or the level left.

Data set [2] concerns Mus musculus. Briefly: Toxicity in BALB/c albino mouse infected with blood trypomastigote stage of Trypanosoma cruzi assessed as change in ALT/GPT level in serum at 25 mg/kg, ip administered on day 7 to 12 post-infection measured after day 120 relative to control. The class given is organism-based. Further details: dose 25 mg/kg, route intraperitoneal. The note with it: in vivo.

Data set [3] concerns Mus musculus. Description: Toxicity in BALB/c albino mouse infected with blood trypomastigote stage of Trypanosoma cruzi assessed as increase in AST/GOT level in serum at 40 mg/kg, ip administered on day 7 to 12 post-infection measured after day 150 relative to control. The class given is organism-based. Further details: dose 40 mg/kg, route intraperitoneal. Particulars: in vivo.

The test system of data set [4] is Mus musculus. Briefly: Toxicity in BALB/c albino mouse infected with blood trypomastigote stage of Trypanosoma cruzi assessed as increase in AST/GOT level in serum at 25 mg/kg, ip administered on day 7 to 12 post-infection measured after day 120 relative to control. The class given is organism-based. Details: dose 25 mg/kg, route intraperitoneal. The note with it: in vivo.

Data set [5] concerns Mus musculus. Description: Toxicity in BALB/c albino mouse infected with blood trypomastigote stage of Trypanosoma cruzi assessed as increase in total bilirubin level in serum at 25 mg/kg, ip administered on day 7 to 12 post-infection measured after day 120 relative to control. The class given is organism-based. Particulars: in vivo. Details: dose 25 mg/kg, route intraperitoneal.

Data set [6] has as its system Mus musculus. Briefly: Toxicity in BALB/c albino mouse infected with blood trypomastigote stage of Trypanosoma cruzi assessed as change in LDH level in serum at 500 mg/kg, ip relative to control. The class given is organism-based. Further details: dose 500 mg/kg, route intraperitoneal. The note with it: in vivo.
The subject of data set [7] is Mus musculus. Briefly: Toxicity in BALB/c albino mouse infected with blood trypomastigote stage of Trypanosoma cruzi assessed as increase in LDH level in serum at 25 mg/kg, ip administered on day 7 to 12 post-infection measured after day 120 relative to control. Details: dose 25 mg/kg, route intraperitoneal. The class given is organism-based. Particulars: in vivo.
Data set [8] deals with Mus musculus. Briefly: Toxicity in BALB/c albino mouse infected with blood trypomastigote stage of Trypanosoma cruzi assessed as change in creatinephophokinase-MB level in serum at 40 mg/kg, ip administered on day 7 to 12 post-infection measured after day 150 relative to control. The class given is organism-based. Details: dose 40 mg/kg, route intraperitoneal. The note with it: in vivo.

In data set [9] the test system is Mus musculus. Description: Toxicity in BALB/c albino mouse infected with blood trypomastigote stage of Trypanosoma cruzi assessed as change in creatinephophokinase-MB level in serum at 25 mg/kg, ip administered on day 7 to 12 post-infection measured after day 120 relative to control. The class given is organism-based. Details: dose 25 mg/kg, route intraperitoneal. Particulars: in vivo.

Data set [10] has as its system Trypanosoma cruzi. Description: Trypanocidal activity against blood trypomastigote stage of Trypanosoma cruzi infected in nonimmunosuppressed BALB/c albino mouse chronic chagas disease model assessed as increase in total Ig-G level at 40 mg/kg, ip administered on day 7 to 12 post-infection measured after day 150 by ELISA. The class given is functional, organism-based. Further details: dose 40 mg/kg.

The subject of data set [11] is Trypanosoma cruzi. Description: Trypanocidal activity against blood trypomastigote stage of Trypanosoma cruzi infected in immunosuppressed BALB/c albino mouse chronic chagas disease model assessed as increase in total Ig-G level at 40 mg/kg, ip administered on day 7 to 12 post-infection measured after day 150 by ELISA. The class given is functional, organism-based. Further details: dose 40 mg/kg. On the technique in general: ELISA stands for enzyme-linked immunosorbent assay.

In data set [12] the test system is Trypanosoma cruzi. Briefly: Antitrypanosomal activity against amastigote stage of Trypanosoma cruzi IRHOD/CO/2008/SN3 infected in African green monkey Vero cells assessed as decrease in infection rate at IC25 preincubated for 12 hrs followed by compound washout measured every 48 hrs for 10 days by Neubauer hemocytometric chamber analysis relative to control. The class given is functional.

Data set [13] concerns Trypanosoma cruzi. Description: Antitrypanosomal activity against epimastigote stage of Trypanosoma cruzi IRHOD/CO/2008/SN3 assessed as mortality at IC25 after 72 hrs by TEM analysis. The class given is functional, organism-based.
In data set [14] the test system is Trypanosoma cruzi. Briefly: Antitrypanosomal activity against epimastigote stage of Trypanosoma cruzi IRHOD/CO/2008/SN3 assessed as appearance of swollen structure filled with empty vacuoles at IC25 after 72 hrs by TEM analysis. The class given is functional, organism-based.
For data set [15], the system named is Trypanosoma cruzi. Description: Antitrypanosomal activity against epimastigote stage of Trypanosoma cruzi IRHOD/CO/2008/SN3 assessed as change in excreted succinate level at IC25 after 96 hrs by 1H NMR analysis relative to control. The class given is functional.
Data set [16] has as its system Trypanosoma cruzi. Description: Antitrypanosomal activity against epimastigote stage of Trypanosoma cruzi IRHOD/CO/2008/SN3 assessed as change in excreted acetate level at IC25 after 96 hrs by 1H NMR analysis relative to control. The class given is functional.
Data set [17] concerns Trypanosoma cruzi. Description: Antitrypanosomal activity against epimastigote stage of Trypanosoma cruzi IRHOD/CO/2008/SN3 assessed as change in excreted alanine level at IC25 after 96 hrs by 1H NMR analysis relative to control. The class given is functional.
For data set [18], the system named is Mus musculus. Briefly: Toxicity in BALB/c albino mouse infected with blood trypomastigote stage of Trypanosoma cruzi assessed as increase in alkaline phosphatase level in serum at 500 mg/kg, ip relative to control. The class given is organism-based. Details: dose 500 mg/kg, route intraperitoneal. The note with it: in vivo.

Activity calls are given as the source filed them. The calls are words filed in the database; no cut-off is given here. A value given as a limit tells only on which side of the number the result lay.

Consider `CCCCNc1c(N(C)CCCN(C)C)c(=O)c1=O`, for which the Activity in the data set with Mus musculus [1] is 10%; with Mus musculus [2] it was < 10%; in the data set on Mus musculus [3], 10%; in the data set on Mus musculus [4] it was 10%; in the data set on Mus musculus [5], 10%; with Mus musculus [6] it was < 10%. The Activity is 10% in the data set with Mus musculus [7]; < 10% in the data set with Mus musculus [8]; < 10% in the data set with Mus musculus [9]; -26.9% with Trypanosoma cruzi [15]; -18.6% in the data set on Trypanosoma cruzi [16]; -18.5% in the data set with Trypanosoma cruzi [17]. In addition, in the data set with Mus musculus [18], the Activity is > 50%. Further, the result in the data set with Trypanosoma cruzi [10], in the data set with Trypanosoma cruzi [11], in the data set with Trypanosoma cruzi [13] and in the data set with Trypanosoma cruzi [14] was Active. The “inhibition (INH)” value in the data set with Trypanosoma cruzi [12] came to 67%.
